From ChEMBL document CHEMBL3046279, “Comparison of larvicidal, adulticidal and acaricidal activity of two geometrical butylidenephthalide isomers” (2006)
Calls of active or inactive are those of the source. The rule behind the calls is not given here.

Assays:
Ctenocephalides felis = assay: Insecticidal activity against adult Ctenocephalides felis at 200 ug/cm2; type: functional, organism-based
Tyrophagus putrescentiae [1] = assay: Ratio of N,N-diethyl-m-toulamide (DEET) LC50 to compound LC50 for Tyrophagus putrescentiae; type: functional
Tyrophagus putrescentiae [2] = assay: Acaricidal activity against Tyrophagus putrescentiae assessed as mortality after 24 hr; type: functional
Tyrophagus putrescentiae [3] = assay: Acaricidal activity against Tyrophagus putrescentiae assessed as mortality at 2.5 ug/cm2 after 24 hr relative to control; type: functional
Tyrophagus putrescentiae [4] = assay: Acaricidal activity against Tyrophagus putrescentiae assessed as mortality at 10 ug/cm2 after 24 hr relative to control; type: functional
Tyrophagus putrescentiae [5] = assay: Acaricidal activity against Tyrophagus putrescentiae assessed as mortality at 20 ug/cm2 after 24 hr relative to control; type: functional
Tyrophagus putrescentiae [6] = assay: Acaricidal activity against Tyrophagus putrescentiae assessed as mortality at 50 ug/cm2 after 24 hr relative to control; type: functional
Dermatophagoides farinae [7] = assay: Ratio of N,N-diethyl-m-toulamide (DEET) LC50 to compound LC50 for Dermatophagoides farinae; type: functional
Dermatophagoides farinae [8] = assay: Acaricidal activity against Dermatophagoides farinae assessed as mortality after 24 hr relative to control; type: functional
Dermatophagoides farinae [9] = assay: Acaricidal activity against Dermatophagoides farinae assessed as mortality at 2.5 ug/cm2 after 24 hr relative to control; type: functional
Dermatophagoides farinae [10] = assay: Acaricidal activity against Dermatophagoides farinae assessed as mortality at 5 ug/cm2 after 24 hr relative to control; type: functional
Dermatophagoides farinae [11] = assay: Acaricidal activity against Dermatophagoides farinae assessed as mortality at 10 ug/cm2 after 24 hr relative to control; type: functional
Dermatophagoides farinae [12] = assay: Acaricidal activity against Dermatophagoides farinae assessed as mortality at 20 ug/cm2 after 24 hr relative to control; type: functional
Dermatophagoides farinae [13] = assay: Acaricidal activity against Dermatophagoides farinae assessed as mortality at 50 ug/cm2 after 24 hr relative to control; type: functional
Drosophila melanogaster [14] = assay: Ratio of rotenone LD50 to compound LD50 for adult Drosophila melanogaster; type: functional
Drosophila melanogaster [15] = assay: Adulticidal activity against Drosophila melanogaster […] assessed as mortality measured per adult; type: functional
Drosophila melanogaster [16] = assay: Ratio of rotenone LC50 to compound LC50 for Drosophila melanogaster larvae; type: functional
Drosophila melanogaster [17] = assay: Larvicidal activity against Drosophila melanogaster larvae assessed as mortality administered through diet after 8 days; type: functional
Tyrophagus putrescentiae [18] = assay: Acaricidal activity against Tyrophagus putrescentiae assessed as mortality at 30 ug/cm2 after 24 hr relative to control; type: functional
Dermatophagoides farinae [19] = assay: Acaricidal activity against Dermatophagoides farinae assessed as mortality at 30 ug/cm2 after 24 hr relative to control; type: functional
Dermatophagoides farinae [20] = assay: Acaricidal activity against Dermatophagoides farinae assessed as mortality at 40 ug/cm2 after 24 hr relative to control; type: functional
Tyrophagus putrescentiae [21] = assay: Acaricidal activity against Tyrophagus putrescentiae assessed as mortality at 100 ug/cm2 after 24 hr relative to control; type: functional
Tyrophagus putrescentiae [22] = assay: Acaricidal activity against Tyrophagus putrescentiae assessed as mortality at 5 ug/cm2 after 24 hr relative to control; type: functional

| SMILES | Activity (Ctenocephalides felis) | RatioLC50 (Tyrophagus putrescentiae [1]) | LC50 (Tyrophagus putrescentiae [2]) [microg/cm2] | mortality at 2.5 µg/cm2 (Tyrophagus putrescentiae [3]) [%] | mortality at 10 µg/cm2 (Tyrophagus putrescentiae [4]) [%] | mortality at 20 µg/cm2 (Tyrophagus putrescentiae [5]) [%] | mortality at 50 µg/cm2 (Tyrophagus putrescentiae [6]) [%] | RatioLC50 (Dermatophagoides farinae [7]) | LC50 (Dermatophagoides farinae [8]) [microg/cm2] | mortality at 2.5 µg/cm2 (Dermatophagoides farinae [9]) [%] | mortality at 5 µg/cm2 (Dermatophagoides farinae [10]) [%] | mortality at 10 µg/cm2 (Dermatophagoides farinae [11]) [%] | mortality at 20 µg/cm2 (Dermatophagoides farinae [12]) [%] | mortality at 50 µg/cm2 (Dermatophagoides farinae [13]) [%] | Ratio (Drosophila melanogaster [14]) | LD50 (Drosophila melanogaster [15]) [µg] | RatioLC50 (Drosophila melanogaster [16]) | LC50 (Drosophila melanogaster [17]) [µM] | also measured |
| --- | --- | --- | --- | --- | --- | --- | --- | --- | --- | --- | --- | --- | --- | --- | --- | --- | --- | --- | --- |
| CCC/C=C1/OC(=O)c2ccccc21 [(E)-BUTYLIDENEPHTHALIDE] | inactive | 0.64 | 25.56 | 12.3 | 33 | 52.9 | 57.2 | 2.78 | 4.67 | 12.2 | 51.6 | 94.7 | 100 | 100 | 3.91 | 0.94 | 0.01 | 2070 | – |
| CCN(CC)C(=O)c1cccc(C)c1 [DIETHYLTOLUAMIDE] | – | – | 16.28 | – | 20.8 | – | 100 | – | 12.98 | – | – | 33.2 | 72.2 | 100 | – | – | – | – | mortality at 30 µg/cm2 (Tyrophagus putrescentiae [18]): 81.1%; mortality at 30 µg/cm2 (Dermatophagoides farinae [19]): 100%; mortality at 40 µg/cm2 (Dermatophagoides farinae [20]): 100%; mortality at 100 µg/cm2 (Tyrophagus putrescentiae [21]): 100% |
| C=C(C)[C@H]1Cc2c(ccc3c2O[C@@H]2COc4cc(OC)c(OC)cc4[C@@H]2C3=O)O1 [ROTENONE] | – | – | – | – | – | – | – | – | – | – | – | – | – | – | – | 3.68 | – | 20 | – |
| CCC/C=C1\OC(=O)c2ccccc21 [Z-butylidenephthalide] | inactive | 0.8 | 20.37 | 7.8 | 22.8 | 56.3 | 74.1 | 2.25 | 5.76 | 15.6 | 32.1 | 77.8 | 100 | 100 | 4.38 | 0.84 | 0.023 | 940 | mortality at 5 µg/cm2 (Tyrophagus putrescentiae [22]): 12.9% |
